Experiments:
[1] = molecular target: T1, Nuclear receptor ROR-gamma (Homo sapiens, UniProt P51449); test: Agonist activity at RoRc-LBD (unknown origin) expressed in HEK293 cells assessed as transcriptional activity by GAL4 reporter assay; type: functional, cell-based
T1 sequence (P51449 whole entry): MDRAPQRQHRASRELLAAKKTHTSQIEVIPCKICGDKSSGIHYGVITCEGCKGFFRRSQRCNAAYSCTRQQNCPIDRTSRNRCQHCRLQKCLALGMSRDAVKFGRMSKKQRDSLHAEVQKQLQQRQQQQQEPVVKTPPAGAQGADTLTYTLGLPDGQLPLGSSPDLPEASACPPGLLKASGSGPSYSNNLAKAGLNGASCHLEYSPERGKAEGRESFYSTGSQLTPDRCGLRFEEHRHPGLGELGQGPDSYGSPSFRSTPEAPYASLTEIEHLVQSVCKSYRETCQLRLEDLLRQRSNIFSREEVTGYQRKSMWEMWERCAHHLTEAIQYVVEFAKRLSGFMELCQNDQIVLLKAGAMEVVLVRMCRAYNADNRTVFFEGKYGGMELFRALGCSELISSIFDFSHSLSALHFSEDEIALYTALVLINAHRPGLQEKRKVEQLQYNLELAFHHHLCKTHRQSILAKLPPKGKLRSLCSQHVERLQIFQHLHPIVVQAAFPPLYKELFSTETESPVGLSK

[2] = molecular target: T1, Nuclear receptor ROR-gamma; test: Inverse agonist activity at human RoRc-LBD fusion protein with GST expressed in […] cells assessed as SRC1 coactivator peptide recruitment; type: functional, cell-based
[3] = molecular target: T1, Nuclear receptor ROR-gamma; test: Agonist activity at human RoRc-LBD expressed in CHO cells assessed as transcriptional activity by GAL4 reporter assay; type: functional, cell-based
[4] = molecular target: T2, Nuclear receptor ROR-gamma (Mus musculus, UniProt P51450); test: Activity at RoRc in mouse CD4+ T cells assessed as inhibition of IL-17 production; type: cell-based, T-cell
T2 sequence (P51450 whole entry): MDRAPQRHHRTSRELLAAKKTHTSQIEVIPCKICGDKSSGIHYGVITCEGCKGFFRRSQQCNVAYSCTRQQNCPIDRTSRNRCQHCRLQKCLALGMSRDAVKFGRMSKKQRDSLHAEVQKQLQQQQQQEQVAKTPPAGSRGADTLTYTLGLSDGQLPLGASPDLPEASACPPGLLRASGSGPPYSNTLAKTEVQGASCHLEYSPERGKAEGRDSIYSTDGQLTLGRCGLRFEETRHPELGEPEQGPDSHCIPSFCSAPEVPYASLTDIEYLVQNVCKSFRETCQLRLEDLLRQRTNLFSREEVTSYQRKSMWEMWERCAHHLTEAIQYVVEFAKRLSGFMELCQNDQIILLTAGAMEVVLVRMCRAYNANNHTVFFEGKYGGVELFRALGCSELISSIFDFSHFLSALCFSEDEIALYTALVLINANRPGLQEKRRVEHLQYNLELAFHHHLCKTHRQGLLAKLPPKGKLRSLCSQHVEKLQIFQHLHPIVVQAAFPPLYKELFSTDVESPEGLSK

[5] = molecular target: T1, Nuclear receptor ROR-gamma; test: Inverse agonist activity at human RoRc-LBD expressed in cells assessed as TRAP-220 coactivator peptide recruitment; type: functional, cell-based
[6] = molecular target: T3, Nuclear receptor ROR-gamma (Mus musculus) (UniProt P51450); test: Activity at RoRc in mouse CD4+ T cells assessed as inhibition of IL-17 production at 10 uM; type: cell-based; settings: T-cell
T3 sequence (whole entry): T2 sequence (P51450 whole entry)

[7] = molecular target: T4, Nuclear receptor ROR-gamma (Homo sapiens) (UniProt P51449); test: Agonist activity at human RoRc-LBD expressed in Jurkat cells assessed as production of IL-17 at 3 uM by luciferase assay in absence of anti-CD3 relative to basal activity; type: cell-based
T4 sequence (whole entry): T1 sequence (P51449 whole entry)

[8] = molecular target: T1, Nuclear receptor ROR-gamma; test: Inhibition of RORc (unknown origin) assessed as inhibition of fluorescein-D22 recruitment by TR-FRET assay; type: functional
[9] = molecular target: T1, Nuclear receptor ROR-gamma; test: Agonist activity at human RoRc-LBD in human PBMC cells assessed as inhibition of IL-17A production by luciferase assay; type: functional, cell-based
[10] = molecular target: T1, Nuclear receptor ROR-gamma; test: Inverse agonist activity at human RoRc-LBD expressed in cells assessed as SRC1 to 2 coactivator peptide recruitment; type: functional, cell-based
[11] = molecular target: T1, Nuclear receptor ROR-gamma; test: Inverse agonist activity at human RoRc in human skin model assessed as suppression of IL-17A level relative to control; type: functional
[12] = molecular target: T1, Nuclear receptor ROR-gamma; test: Inverse agonist activity at human RoRc in human skin model assessed as suppression of IL-17F level relative to control; type: functional
[13] = molecular target: T4, Nuclear receptor ROR-gamma (Homo sapiens); test: Activity at human RoRc in human Jurkat cells assessed as inhibition of IL-17 promoter at 3 uM relative to control; type: cell-based
[14] = molecular target: T1, Nuclear receptor ROR-gamma; test: Agonist activity at RoRc-LBD (unknown origin) expressed in Drosophilla S2 cells assessed as transcriptional activity by GAL4 reporter assay; type: functional, cell-based

Q: With O=S(=O)(c1cc(F)ccc1OC(F)(F)F)N1Cc2nccnc2-n2ccnc2[C@H]1Cc1ccccc1 as the compound, how does the EC50 [1] read?
A: < 500 nM

Q: What about the EC50 [2] of the same compound?
A: < 500 nM

Q: How did the EC50 [2] turn out when CN1c2cc3c(cc2N=C(c2ccc(C(=O)O)cc2)c2ccc4ccccc4c21)C(C)(C)CCC3(C)C was run?
A: 4000 nM

Q: How did the EC50 [3] turn out when Cc1ccc(Cl)c(NC(=O)C[C@H](CC(=O)O)c2noc([C@H]3C[C@@H](CC(C)C)C3)c2C2CC2)c1 was run?
A: 71 nM

Q: How did the EC50 [4] turn out when [2H]C([2H])([2H])N(C(=O)c1c(F)cccc1Cl)c1ccc(-c2cc(C(=O)NCC(C)(C)O)ccc2Cl)cc1N(C([2H])([2H])C([2H])([2H])[2H])C([2H])([2H])C([2H])([2H])[2H] was run?
A: < 100 nM

Q: What about the EC50 [5] of the same compound?
A: < 100 nM

Q: With COc1ccc(C(C(=O)Nc2ccc(C(C)(C)C)cc2)N(C)C(=O)c2c[nH]c(=O)cn2)cc1 (stereo not given) as the compound, how does the inhibition [6] read?
A: 95%

Q: CCC(=O)Nc1ccc2nn(-c3ccc(CC)cc3)nc2c1 was tested. Which Activity [7] did it give?
A: 220%

Q: With COc1ccccc1S(=O)(=O)N1Cc2ccccc2COCC1Cc1ccccc1 (stereo not given) as the compound, how does the EC50 [2] read?
A: < 500 nM

Q: With Cc1ccc(NC(=O)C[C@H](CCC(=O)O)c2noc([C@H]3C[C@@H](CC(C)(C)C)C3)c2C2CC2)c(Cl)c1 as the compound, how does the EC50 [3] read?
A: 2300 nM

Q: How did the EC50 [8] turn out when CCS(=O)(=O)c1ccc(CC(=O)Nc2ccc(-n3ccc(C)n3)c(Oc3cccc(OC(F)(F)F)c3)c2)cc1 was run?
A: < 50 nM

Q: How did the EC50 [1] turn out when O=S(=O)(c1ccccc1OC(F)(F)F)N1Cc2cncnc2-n2ccnc2[C@H]1Cc1ccccc1 was run?
A: < 500 nM

Q: What about the EC50 [2] of the same compound?
A: < 500 nM

Q: Which results are given for Cc1noc(C)c1COc1ccc(S(=O)(=O)N(CC(C)C)c2ccc(Cl)cc2)cc1?
A: EC50 [9]: < 1000 nM; EC50 [10]: < 16 nM

Q: How did the EC50 [4] turn out when CCS(=O)(=O)c1ccc(CC(=O)Nc2ccc3c(ccn3CCc3ccc(Cl)cc3Cl)c2)cc1 was run?
A: 9 nM

Q: What does the source list for OC(c1ccc(CN2CCCc3cc(-c4cn[nH]c4)ccc32)cc1)(C(F)(F)F)C(F)(F)F?
A: EC50 [11]: < 10000 nM; EC50 [12]: < 10000 nM

Q: With COc1ccc(C(C(=O)Nc2ccc(C(C)(C)C)cc2)N(C)C(=O)c2ccc(=O)[nH]c2)cc1 (stereo not given) as the compound, how does the inhibition [6] read?
A: 95%

Q: What does the source list for COc1ccc(-c2c(-c3nc(CC(=O)NCC4CCOCC4)cs3)cnn2C(C)(C)C)cc1F?
A: inhibition [13]: 96%; inhibition [6]: 91%

Q: With O=C(O)c1ccc(-c2nn(C(=O)c3c(Cl)cccc3C(F)(F)F)c3cc(C(=O)NCCO)ccc23)cc1 as the compound, how does the EC50 [2] read?
A: < 50 nM

Q: For CC(=O)Nc1ccc2c(c1)CCCN2Cc1ccc(C(O)(C(F)(F)F)C(F)(F)F)cc1, which EC50 [11] is on record?
A: < 10000 nM

Q: And the EC50 [12]?
A: < 10000 nM

Q: Cc1ccc(NC(=O)C[C@H](CC(=O)O)c2noc([C@H]3C[C@@H](CC(C)C)C3)c2C2CC2)c(Cl)c1 was tested. Which EC50 [3] did it give?
A: 320 nM

Q: With CC(C)(C)n1ncc(-c2nc(CC(=O)NCC3CCOCC3)cs2)c1-c1cc2ccccc2s1 as the compound, how does the inhibition [6] read?
A: 98%

Q: Which IC50 [10] does the source give for Cc1ccc(C(NC(=O)Cc2ccc(N(CC(=O)O)Cc3c(C)noc3C)cc2)c2ccccc2)cc1 (stereo not given) here?
A: 1 nM

Q: Which results are given for CO[C@@H]1Cc2ccccc2CN(S(=O)(=O)c2cccc3cccnc23)[C@@H]1Cc1ccccc1?
A: EC50 [1]: < 500 nM; EC50 [2]: < 500 nM

Q: Which EC50 [4] does the source give for CN(C(=O)c1c(F)cccc1Cl)c1ccc(-c2cc(C(N)=O)ccc2Cl)cc1O[C@@H]1C[C@@H]2C[C@@H]2C1 here?
A: < 100 nM

Q: And the EC50 [5]?
A: < 100 nM

Q: With Cc1ccc(C(NC(=O)Cc2ccc(OCC(O)c3cccnc3C)cc2)c2ccccc2)c(C)c1 (stereo not given) as the compound, how does the IC50 [10] read?
A: 1 nM

Q: Which EC50 [14] does the source give for C[C@H]1O[C@@H](O[C@H]2[C@@H](O)C[C@H](O[C@H]3[C@@H](O)C[C@H](O[C@H]4CC[C@@]5(C)[C@H](CC[C@@H]6[C@@H]5C[C@@H](O)[C@]5(C)[C@@H](C7=CC(=O)O/C7=C\c7ccccc7O)CC[C@]65O)C4)O[C@@H]3C)O[C@@H]2C)C[C@H](O)[C@@H]1O here?
A: 1000 nM

Q: Which EC50 [2] does the source give for CCS(=O)(=O)c1ccc(CC(=O)Nc2nc(-c3cc(Cl)ccc3Cl)cs2)cc1 here?
A: 1000 nM

Q: Which EC50 [2] does the source give for O=S(=O)(c1cccc2cccnc12)N1Cc2ccccc2COCC1Cc1ccccc1 (stereo not given) here?
A: < 500 nM

Source: ChEMBL document CHEMBL3351629, “Modulators of the nuclear receptor retinoic acid receptor-related orphan receptor-γ (RORγ or RORc)” (J Med Chem, 2014)
